Experiments:
monoclonal antibody DD-1 = experiment: Competition ELISA with monoclonal antibody DD-1; type: binding, Biozzi mice; conditions: for I50 (inhibits antibody binding by 50%): competitor vs monoclonal antibody DD-1, plate coated with A-triCDD-RSA
Protocol: (§1) In this case the hybridomas were then screened for their ability to distinguish A-triCDD-BSA and A-triCDD-RSA from BSA and RSA. On the basis of this initial screen about 25 stable, antibody-producing colonies were isolated, subcloned, and frozen. The remaining clones were again screened for their abilities to recognize free TCDD in suspension. Experimentally, on the order of 10-100 nanograms of TCDD in hexane was dried, 0.5 ml of saline with BSA (1 mg/ml) was added and sonificated for 2 hrs. […] Identical procedures were followed for other dioxin isomers. A dilution series in microtiter plate wells was then made with the suspended TCDD, antibody adde, and the competition ELISA completed. Competition ELISA test procedures are discussed in detail in the following reference: Butt, W. R. (1984) "Practical Immunoassay: The State of the Art", Marcel Dekker, Inc., N.Y., N.Y.
(§2) A large part of the success that we have had in characterizing the binding specificities of our monoclonal antibodies comes from having developed a reliable competition ELISA protocol. Our preferred assay starts from stock solutions at 10 ppm in hexane of the various compounds listed in Table I. 10 μl of hexane solution is aliquoted into a small vial, evaporated under a stream of nitrogen gas, and 500 μl of a 1 mg/ml solution of BSA in phosphate buffered saline with 0.1% BSA is added. The vial is capped and placed in an ultrasonic cleaning waterbath for two hours. Two hours of sonification gives a more reproducible assay than does an hour. During the sonification, the hexane appears to evaporate completely, and one is left with an aqueous solution containing the dioxin. Microtiter plates coated with A-triCDD-RSA are blocked with a three percent solution of ovalbumin and a two-fold dilution series of sonificated dioxin-BSA is then made, covering the range 100 ppb-0.1 ppb. In each well of the plate 100 μl of the sonificated dioxin-BSA solution is mixed with n equal volume of antibody. The antibody partitions between the dioxin adsorbed to the BSA, and the A-tri-CDD-RSA on the plate.
(§3) A-TriCDD-RSA was adsorbed onto the surface of the wells of a microtiter plate. The various competitors listed were suspended in saline containing bovine serum albumin (BSA). These solutions were made by sonificating 10 μl of dioxin solution in hexane with 500 μl of saline-BSA. A dilution series of these dioxin-BSA solutions was then made covering the range of 100-0.2 ppb, and placed in the microtiter plate wells. An equal volume of DD-1 monoclonal antibody was then added, and allowed to react for 1 hour. Tne antibody binds either to the A-TriCDD-RSA on the plate or the dioxin in solution. After the hour, the solution phase is removed, the plate washed, and it is reincubated for an hour with peroxidase-conjugated goat-anti-mouse-immunoglobulins. A second washing is then done, and substrate (ABTS) added to the peroxidase. The enzyme-antibody conjugate and substrate function as a "developer", allowing the visualization of the DD-1 bound to the A-triCDD-RSA on the plate. Results are then expressed as a fraction of the response in wells with no competitor. […] At about 20 ppb of 2,3,7,8-TCDD the relative ELISA response is half of control, meaning that half the DD-1 antibody bound to the solution phase dioxin and half bound to the A-triCDD-RSA on the plate. For 1,2,3,7(8)-TCDD, 50% inhibition occurs at about 4 ppb, indicating the DD-1 prefers 1,2,3,7(8)-TCDD to 2,3,7,8-TCDD.
(§4) The FIGURE and Table II show representative competition data using several chlorinated compounds as competitors. From such data, one can determine the concentration required to inhibit antibody binding by 50% (I50). Table II lists the I50 for all compounds tested with the antibodies. In reporting these values, factors of two are about the limit of significance. […] The binding specificities of these antibodies are highly desirable, since they prefer the most toxic of the dioxin and dibenzofuran isomers.

monoclonal antibody DD-3 = experiment: Competition ELISA with monoclonal antibody DD-3; type: binding, BALB/c mice; conditions: competitor vs monoclonal antibody DD-3; plate coated with A-triCDD-RSA
Protocol: as §1, §2, §3, §4

monoclonal antibody DD-4 = experiment: Competition ELISA with monoclonal antibody DD-4; type: binding, BALB/c mice; conditions: competitor vs monoclonal antibody DD-4; plate coated with A-triCDD-RSA
Protocol: as §1, §2, §3, §4

monoclonal antibody DD-5 = experiment: Competition ELISA with monoclonal antibody DD-5; type: binding, Biozzi mice; conditions: competitor vs monoclonal antibody DD-5; plate coated with A-triCDD-RSA
Protocol: as §1, §2, §3, §4

monoclonal antibody DD-6 = experiment: Competition ELISA with monoclonal antibody DD-6; type: binding, Biozzi mice; conditions: competitor vs monoclonal antibody DD-6; plate coated with A-triCDD-RSA
Protocol: as §1, §2, §3, §4

[1] = test system: monoclonal antibodies DD-1, DD-3, DD-4, DD-5 and DD-6; experiment: Competition ELISA, statements for all antibodies together; type: binding, BALB/c and Biozzi mice; conditions: for reactivity of all antibodies with competitor: up to the highest concentration tested (100 ppb)
Protocol: as §1, §2, §3, §4

Structure (SMILES)	I50 (inhibits antibody binding by 50%) (monoclonal antibody DD-1)	I50 (inhibits antibody binding by 50%) (monoclonal antibody DD-3)	I50 (inhibits antibody binding by 50%) (monoclonal antibody DD-4)	I50 (inhibits antibody binding by 50%) (monoclonal antibody DD-5)	I50 (inhibits antibody binding by 50%) (monoclonal antibody DD-6)	reactivity of all antibodies with competitor [1]	affinity / recognition by all antibodies ([1]; all antibodies)	reaction of DD-1 with competitor (monoclonal antibody DD-1; FIGURE, DD-1, 100-0.2 ppb)
Clc1ccc2oc3c(Cl)c(Cl)c(Cl)c(Cl)c3c2c1Cl [1,2,3,4,8,9-Hexa-CDBF]	> 200 ng	> 200 ng	> 200 ng	> 10 ng	> 150 ng	either do not react or react only marginally	–	–
Clc1cc2oc3cc(Cl)c(Cl)cc3c2cc1Cl [2,3,7,8-TCDBF]	0.65 ng	0.9 ng	5 ng	1 ng	0.5 ng	–	slightly less affinity	–
Clc1c(Cl)c(Cl)c2c(c1Cl)Oc1c(Cl)c(Cl)c(Cl)c(Cl)c1O2 [Octachloro-DD, octachlorodibenzodioxin]	> 200 ng	> 200 ng	> 200 ng	> 10 ng	> 200 ng	either do not react or react only marginally	–	does not react

— patent publication US4798807A, “Monoclonal antibodies and method for detecting dioxins and dibenzofurans” (priority 1986, dated 1989)
